Experimental data taken from US20250339359A1, “PEPTIDE HAVING ACTIVITY OF IMPROVING STATE OF SKIN, AND USE THEREOF” (CAREGEN CO., LTD., priority 2021, published 2025).

Assays:
aquaporin-3 (AQP3) = assay: Expression of AQP3 in HaCaT cells (RT-PCR); assay type: cell-based, human; details: 50 µM or 100 µM peptide, 24 hours, FIG. 4, FIG. 5B
Description: (§1) In this example, the aim was to confirm the effect of the peptides according to an example on skin barrier defense, by evaluating the expression levels of sirtuin-1 (SIRT-1) or aquaporin-3 (AQP3).
(§2) Specifically, HaCaT cells were seeded in a 6-well plate at a density of 3×10^5 cells/well and cultured for 24 hours. The cells were then washed once with serum-free DMEM media, and the culture medium was replaced with serum-free DMEM media. Thereafter, 50 µM or 100 µM of the peptide consisting of the amino acid sequence of SEQ ID NO: 1 was dispensed into the medium, and cultured in a CO2 incubator at 37° C. for 24 hours. The culture was then washed twice with PBS, and RNA was isolated from the culture using easy blue (iNtRON, Korea). Using the RT kit (Enzynomics, Korea), 1 μg of the isolated RNA was reverse transcribed to synthesize the respective cDNA. Polymerase chain reaction was then performed using the cDNAs and primers sirtuin-1 and aquaporin-3. Meanwhile, the untreated group was used as the control group, and the group to which EGF was added (EGF) was used as the positive control group, the nucleotide sequences of the primers used in this example are shown in Table 3 below.

NIH3T3 cells [1] = assay: Survival rate after ultraviolet-induced apoptosis (SRB), NIH3T3; assay type: cell-based, mouse; details: 6 J/cm2 ultraviolet rays, 50 µM or 100 µM peptide, 72 hours, FIG. 6A
Description: (§3) In this example, the aim was to confirm the effect of the peptide according to an example on the inhibition of apoptosis or cell recovery of skin cells induced by ultraviolet rays, by evaluating the change in survival rate of skin cells whose apoptosis was induced by ultraviolet irradiation.
(§4) Specifically, NIH3T3 cells or HaCaT cells were seeded in a 96-well plate at a density of 1×10^4 cells/well and cultured for 24 hours. The cells were then washed once with serum-free DMEM media, the culture medium was replaced with serum-free DMEM media, and 50 µM or 100 µM of the peptide consisting of the amino acid sequence of SEQ ID NO: 1 was dispensed to the culture medium. The culture medium dispensed with the peptide was cultured in a CO2 incubator at 37° C. for 1 hour, transferred to an e-tube, mixed with 100 ul of PBS, and dispensed into a well plate. Afterwards, using a UV irradiator (VILBER LOURMAT, France), 6 J/cm2 ultraviolet rays were irradiated to NIH3T3 cells, and 15 m J/cm2 ultraviolet rays were irradiated to HaCaT cells. The PBS in the well plate was then removed, 900 μL of the culture medium in which the peptides were dispensed was added, and the plate was cultured in a CO2 incubator at 37° C. for 72 hours. […] The dried culture was then dissolved in 20 mM Tris buffer solution and the absorbance at 560 nm was measured using a microplate reader (Molecular Devices, USA). […]

collagen type 1 (Col1a1) = assay: Expression of Col1a1 in NIH3T3 cells (RT-PCR); assay type: cell-based, mouse; details: 50 µM or 100 µM peptide, 24 hours, FIG. 2, FIG. 3A
Description: (§5) In this example, the aim was to confirm the effect of the peptide according to an example on improving endogenous skin aging, including improvement of wrinkles and enhancement of elasticity, etc., by evaluating the expression levels of collagen type 1 (Col1a1), fibronectin, or elastin, which are known components of the dermis.
(§6) Specifically, NIH3T3 cells were seeded in a 6-well plate at a density of 3×10^5 cells/well and cultured for 24 hours. The cells were then washed once with serum-free DMEM media, and the culture medium was replaced with serum-free DMEM media. Thereafter, 50 µM or 100 µM of the peptide consisting of the amino acid sequence of SEQ ID NO: 1 was dispensed into the medium, and cultured in a CO2 incubator at 37° C. for 24 hours. The culture was then washed twice with PBS, and RNA was isolated from the culture using easy blue (iNtRON, Korea). Using an RT kit (Enzynomics, Korea), 1 μg of the isolated RNA was reverse transcribed to synthesize the respective cDNA. Polymerase chain reaction (PCR) was then performed using the cDNAs and primers Col1a1, fibronectin, and elastin. Meanwhile, the untreated group was used as the control group, and the group to which TGF-β1 was added (TGF-β1) was used as the positive control group, the nucleotide sequences of the primers used in this example are shown in Table 2 below.

NIH3T3 cells [2] = assay: Proliferation of skin cells (SRB staining), NIH3T3; assay type: cell-based, mouse; details: 50 µM or 100 µM peptide, 72 hours, serum-free DMEM, FIG. 1A
Description: (§7) In this example, the aim was to confirm the effect of a peptide according to an example on proliferation of skin cells, by evaluating changes in survival rate of NIH3T3 cells, which are mouse fibroblasts, or HaCaT cells, which are human keratinocytes.
(§8) Specifically, NIH3T3 cells or HaCaT cells were seeded in a 96-well plate at a density of 5×10^3 cells/well and cultured for 24 hours. The cells were then washed once with serum-free DMEM media, and the culture medium was replaced with serum-free DMEM media. Then, 50 µM or 100 µM of the peptide consisting of the amino acid sequence of SEQ ID NO: 1 was dispensed into the medium, and cultured in a CO2 incubator at 37° C. for 72 hours. The culture was then washed twice with PBS and treated with 4% paraformaldehyde (PFA) solution for 15 minutes to fix the cultured cells. The culture was then washed twice with distilled water, treated with SRB solution for 1 hour to stain the cells, washed with 1% acetic acid solution, and dried. The dried culture was then dissolved in 20 mM Tris buffer solution and the absorbance at 560 nm was measured using a microplate reader (Molecular Devices, USA). In this example, the untreated group was used as the control group, and the group to which insulin-like growth factor was added (IGF) was used as the positive control group.

HaCaT cells [3] = assay: Survival rate after ultraviolet-induced apoptosis (SRB), HaCaT; assay type: cell-based, human; details: 15 m J/cm2 ultraviolet rays, 50 µM or 100 µM peptide, 72 hours, FIG. 6B
Description: as §3, §4

sirtuin-1 (SIRT-1) = assay: Expression of SIRT-1 in HaCaT cells (RT-PCR); assay type: cell-based, human; details: 50 µM or 100 µM peptide, 24 hours, FIG. 4, FIG. 5A
Description: as §1, §2

HaCaT cells [4] = assay: Proliferation of skin cells (SRB staining), HaCaT; assay type: cell-based, human; details: 50 µM or 100 µM peptide, 72 hours, serum-free DMEM, FIG. 1B
Description: as §7, §8

fibronectin = assay: Expression of fibronectin in NIH3T3 cells (RT-PCR); assay type: cell-based, mouse; details: 50 µM or 100 µM peptide, 24 hours, FIG. 2, FIG. 3B
Description: as §5, §6

elastin = assay: Expression of elastin in NIH3T3 cells (RT-PCR); assay type: cell-based, mouse; details: 50 µM or 100 µM peptide, 24 hours, FIG. 2, FIG. 3C
Description: as §5, §6

NIH3T3 cells [5] = assay: Reactive oxygen species level after ultraviolet irradiation (DCF-DA, FACS), NIH3T3; assay type: cell-based, mouse; details: 6 J/cm2 ultraviolet rays, 50 µM or 100 µM peptide, 24 hours, FIG. 7A
Description: (§9) In this example, the aim was to confirm the effect of the peptide according to an embodiment on the antioxidant effect of skin cells induced by ultraviolet rays, by evaluating the level of reactive oxygen species in skin cells increased by ultraviolet irradiation.
as §4, with “6-well” for “96-well”, “5×10^5” for “1×10^4”, “24” for “72”, “After washing” for “The dried culture was then dissolved in 20 mM Tris buffer solution and”, “centrifuged cells with PBS, FL1 fluorescence values were” for “absorbance at 560 nm was”, “through flow cytometry (FACS, BD,” for “using a microplate reader (Molecular Devices,”

HaCaT cells [6] = assay: Reactive oxygen species level after ultraviolet irradiation (DCF-DA, FACS), HaCaT; assay type: cell-based, human; details: 15 m J/cm2 ultraviolet rays, 50 µM or 100 µM peptide, 24 hours, FIG. 7B
Description: as §9
as §4, with “6-well” for “96-well”, “5×10^5” for “1×10^4”, “24” for “72”, “After washing” for “The dried culture was then dissolved in 20 mM Tris buffer solution and”, “centrifuged cells with PBS, FL1 fluorescence values were” for “absorbance at 560 nm was”, “through flow cytometry (FACS, BD,” for “using a microplate reader (Molecular Devices,”

EALKYWYEN (Peptide 1) [SEQ ID NO: 1]
expression of AQP3 (aquaporin-3 (AQP3)): increased | cell survival rate of fibroblasts reduced by ultraviolet irradiation (NIH3T3 cells [1]): restored | expression of Col1a1 (collagen type 1 (Col1a1)): increased | proliferation of fibroblasts (NIH3T3 cells [2]): promoted | cell survival rate of keratinocytes reduced by ultraviolet irradiation (HaCaT cells [3]): restored | expression of SIRT-1 (sirtuin-1 (SIRT-1)): increased | proliferation of keratinocytes (HaCaT cells [4]): promoted | expression of fibronectin (fibronectin): increased | expression of elastin (elastin): increased | level of reactive oxygen species in fibroblasts increased by ultraviolet irradiation (NIH3T3 cells [5]): reduced | level of reactive oxygen species in keratinocytes increased by ultraviolet irradiation (HaCaT cells [6]): reduced
